Read-outs that look alike come from different tables or passages of the source. Marks after values point to notes of the source that are not given here.
Legend:
[1] = cited from earlier work
[2] = cited from earlier work; remark: listed apart in the source
OCT1 = system: OCT1; parameters: method as in PMID 25914645; conditions: read-out: Absolute IC50 for OCT1; cited from earlier work
human OCT1 = target: T1, human OCT1 (Homo sapiens, UniProt O15245); experiment: Inhibition of OCT1-mediated ASP uptake in transduced HEK293 cells; format: cell-based; conditions: 50 µM anti-malarial, 10 µM ASP, 10 min, 37 °C; relative to solvent control fixed at 100%
T1 construct: host or cells: HEK293, baculovirus transduction (CMV promoter), transient
T1 sequence (O15245 1-554): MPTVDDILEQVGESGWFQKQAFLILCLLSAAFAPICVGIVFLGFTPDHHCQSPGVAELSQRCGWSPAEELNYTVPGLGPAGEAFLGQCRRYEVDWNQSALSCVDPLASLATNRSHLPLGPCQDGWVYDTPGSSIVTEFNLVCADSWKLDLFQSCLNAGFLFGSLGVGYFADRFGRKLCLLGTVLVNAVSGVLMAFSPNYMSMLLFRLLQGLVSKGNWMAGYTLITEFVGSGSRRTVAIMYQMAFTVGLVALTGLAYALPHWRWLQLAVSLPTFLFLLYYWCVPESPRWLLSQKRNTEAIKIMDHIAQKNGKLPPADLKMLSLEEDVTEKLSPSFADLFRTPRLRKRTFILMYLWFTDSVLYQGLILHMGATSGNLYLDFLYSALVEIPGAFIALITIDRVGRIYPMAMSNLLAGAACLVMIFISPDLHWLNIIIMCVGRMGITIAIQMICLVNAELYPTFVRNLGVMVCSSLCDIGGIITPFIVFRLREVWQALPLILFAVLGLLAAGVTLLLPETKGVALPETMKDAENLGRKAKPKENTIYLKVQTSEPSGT
Description: (§1) HEK293 cells were modified to transiently express (a combination of) human OCT1, OCT2, MATE1, MATE2-K, or eYFP. Briefly, cDNA of the respective genes was cloned downstream of a CMV promoter into a baculovirus, of which passage three was used to transduce HEK293 cells. These cells were seeded in poly-D-lysine coated 24- or 96-wells plates and grown in a 37 °C incubator at 5% CO2. Growth was initiated at ~ 25% confluency using 375 or 125 μL cell and complete medium (DMEM + GlutaMAX™-I supplemented with 10% fetal bovine serum) suspension per well, respectively. After 24 h, cells were transduced with 30 µL virus (10 µL virus + 20 µL complete medium in case of 96-wells plates) or 2 × 15 µL virus for cells that required simultaneous expression of two transporters. Finally, 195 µL sodium butyrate (45 µL for 96-wells plates) was added to a final concentration of 2 mM to enhance protein expression.
AMO (10 mM), ASP (1 mM), CQ (10 mM), PQ (10 mM) and PG (10 mM) were dissolved in MilliQ water. ART (10 mM), ATO (10 mM), DHA (10 mM), LUM (10 mM), MQ (10 mM), NMQ (20 mM), PYR (10 mM), QN (10 mM) were dissolved in DMSO. All compound stocks were stored at − 20 °C. Inhibition of OCT1- or OCT2-mediated ASP uptake by anti-malarials was performed in poly-D-lysine coated 96-wells plates 2 or 3 days following HEK293 cell transduction. In short, cells were washed with 125 µL 37 °C HBSS containing 10 mM HEPES, pH 7.4. Then, a 50 µL mixture of ASP (10 µM) and anti-malarial compound (25, 50 or 100 µM) in HBSS buffer (pH 7.4) was added to each well and incubated for 10 min at 37 °C. ASP transport was stopped by washing with 125 µL ice-cold HBSS-HEPES buffer supplemented with 0.5% BSA. Following a second wash with 125 µL ice-cold HBSS-HEPES buffer, cells were lysed with 125 µL 1 M NaOH and ASP was excited at a wavelength of 485 nm and fluorescence was detected at an emission wavelength of 535 nm using the Victor X3 multimode plate reader.
(§2) For each compound, a range of seven concentrations was used to determine the concentration at which ASP uptake was inhibited half maximally (IC50). At least three independent experiments (4 for QN) were performed for each drug in triplicate as described above. Inhibition curves were plotted by nonlinear regression analyses of the data using GraphPad Prism version 5.03. […] To generate the final dose–response inhibition curve per anti-malarial, percentage of uptake was averaged for each drug concentration per experiment and the resulting mean ± SEM corresponding to three or four independent experiments were plotted.

human OCT2 [3] = target: T2, human OCT2 (Homo sapiens, UniProt O15244); experiment: Inhibition of OCT2-mediated ASP uptake in transduced HEK293 cells; format: cell-based; conditions: 10 µM ASP, 10 min, 37 °C
T2 construct: host or cells: HEK293, baculovirus transduction (CMV promoter), transient
T2 sequence (O15244 1-555): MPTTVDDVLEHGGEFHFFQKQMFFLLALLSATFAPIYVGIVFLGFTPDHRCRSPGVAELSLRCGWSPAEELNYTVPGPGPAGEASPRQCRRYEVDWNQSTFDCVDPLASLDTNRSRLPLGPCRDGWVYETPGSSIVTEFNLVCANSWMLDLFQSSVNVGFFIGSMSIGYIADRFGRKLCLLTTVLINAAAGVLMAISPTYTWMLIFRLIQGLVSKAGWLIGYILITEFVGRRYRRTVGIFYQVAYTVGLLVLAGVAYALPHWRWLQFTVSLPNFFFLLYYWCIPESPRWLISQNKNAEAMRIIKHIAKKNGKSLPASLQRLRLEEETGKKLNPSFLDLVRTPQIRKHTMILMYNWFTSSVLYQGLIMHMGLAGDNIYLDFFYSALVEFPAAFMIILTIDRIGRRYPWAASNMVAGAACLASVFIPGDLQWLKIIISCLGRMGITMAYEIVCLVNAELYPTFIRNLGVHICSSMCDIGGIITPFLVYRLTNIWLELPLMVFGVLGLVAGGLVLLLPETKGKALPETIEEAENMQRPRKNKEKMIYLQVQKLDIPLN
Description: as §1, with “Growth was initiated at ~ 25% confluency using 375 or 125 μL cell and complete medium (DMEM + GlutaMAX™-I supplemented with 10% fetal bovine serum) suspension per well, respectively.” left out
AMO (10 mM), ASP (1 mM), CQ (10 mM), PQ (10 mM) and PG (10 mM) were dissolved in MilliQ water. ART (10 mM), ATO (10 mM), DHA (10 mM), LUM (10 mM), MQ (10 mM), NMQ (20 mM), PYR (10 mM), QN (10 mM) were dissolved in DMSO. All compound stocks were stored at − 20 °C. Inhibition of OCT1- or OCT2-mediated ASP uptake by anti-malarials was performed in poly-D-lysine coated 96-wells plates 2 or 3 days following HEK293 cell transduction. In short, cells were washed with 125 µL 37 °C HBSS containing 10 mM HEPES, pH 7.4. […] ASP transport was stopped by washing with 125 µL ice-cold HBSS-HEPES buffer supplemented with 0.5% BSA.
as §2, with “above.” for “above. Inhibition curves were plotted by nonlinear regression analyses of the data using GraphPad Prism version 5.03.”

[4] = Maximum plasma concentration from in vivo pharmacokinetic studies after therapeutic dosing; conditions: human, the literature Cmax (ng/mL) of Table 2 expressed in µM
Description: As Cmax the (geometric) mean or median maximum plasma concentrations obtained from previous in vivo pharmacokinetic studies after therapeutic dosing was used.

OCT2 = system: OCT2; parameters: method as in PMID 20053795; conditions: 50 µM; HeLa cells, metformin as substrate; cited from earlier work
human OCT2 [5] = target: T2, human OCT2; parameters: method as in PMID 21544077; conditions: HEK293 cells stably expressing human OCT2; read-out: Ki for OCT2-mediated MET uptake; cited from earlier work
[6] = substrate: [H]/N=C(\N/C(=N/[H])Nc1ccc(Cl)cc1)NC(C)C; experiment: OCT2-mediated cellular import in transduced HEK293 cells (LC-MS/MS); format: cell-based, human; conditions: other: 1 min incubation, 37 °C, 2.0–16 µM, pH 7.4
Description: HEK293 cells were modified to transiently express (a combination of) human OCT1, OCT2, MATE1, MATE2-K, or eYFP. Briefly, cDNA of the respective genes was cloned downstream of a CMV promoter into a baculovirus, of which passage three was used to transduce HEK293 cells. These cells were seeded in poly-D-lysine coated 24- or 96-wells plates and grown in a 37 °C incubator at 5% CO2. Growth was initiated at ~ 25% confluency using 375 or 125 μL cell and complete medium (DMEM + GlutaMAX™-I supplemented with 10% fetal bovine serum) suspension per well, respectively. […]
HEK293 cells were seeded in 24-wells poly-D-lysine coated plates and transduced the subsequent day with OCT1 or OCT2 as described above. […] Following a second wash with 400 µL ice-cold HBSS-HEPES buffer, cells were lysed with 200 µL 50% (v/v) MeOH and 0.1% (v/v) formic acid (HCOOH) in water and samples were sent for quantification by mass spectrometry analysis (see “LC–MS/MS quantification of anti-malarials” section). […]
The affinity (KM) and maximum transport rate (Vmax) for OCT1 and OCT2 of PG were determined by analysing concentration-dependent uptake data from three independent experiments.
Import and export of PG and cycloguanil (CG) was assessed by single and double transduced HEK293 cells. […]

O=C1Nc2ccc(Cl)cc2[C@@](C#CC2CC2)(C(F)(F)F)O1 [EFV, efavirenz]
Maximum plasma concentration [1]: 13 µM | Unbound in plasma [2]: about 0.22% | Unbound maximum plasma concentration [2]: 0.03 µM | IC50 (OCT1): 22 µM

CCc1nc(N)nc(N)c1-c1ccc(Cl)cc1 [Pyrimethamine, pyrimethamine]
Relative ASP uptake (OCT1-mediated) (human OCT1): 59 ± 6% | IC50 (human OCT2 [3]; seven concentrations): 1.6 µM | Relative ASP uptake (OCT2-mediated) (human OCT2 [3]; 50 µM anti-malarial, relative to solvent control fixed at 100%): 6 ± 2% | Cmax [4]: 1.1 µM | Cmax ([1]; patients with acute falciparum malaria, (geometric) mean or median): 281^e [48] ng/mL | Unbound fraction [2]: 0.06 [49] | Reduction of OCT2 activity (OCT2): 60% | Ki (human OCT2 [5]): 10 µM

B1: human OCT2 (Homo sapiens) (protein)
chain: T2 sequence (O15244 1-555)
notes: host or cells: HEK293, baculovirus transduction (CMV promoter), transient
Km [6]: 9.0 µM

— publication PMC5654082 (Malaria Journal, 2017)
